Assay [1] deals with SMS-SB cells (CALLA- human leukemic cell line). In words: Growth of SMS-SB cells (viable cell counts daily). The conditions noted are these: 10 μM, bolus or daily addition; FIG. 4. It counts as cell-based. On the procedure: FIG. 2--Effect of NEP Inhibitors on the Growth of Nall-1 and SMS-SB Cell Lines. The NEP inhibitors phosphoramidon (10 nM) and carboxyphenylethyl-Phe-β-Ala(10 μM) were added to cells plated at a density of 200,000 cells/ml. The inhibitors were added either once on Day 0 as a bolus (closed circle and square) or daily (open circle or triangle). The number of viable cells was determined daily. […] Cells counts were conducted daily. […] Nalm-6 and Nall-1 are leukemic cell lines generally representative of CALLA+ lymphoblastic leukemias. […] The number of viable cells was determined daily. In FIG. 2, the NEP inhibitors phosphoramidon (PA;10 nM) and carboxyphenylethyl-Phe-β-Ala (10 μM) were added to Nall-1 and, in a separate experiment, to SMS-SB cells plated at a density of 200,000 cells/ml. The inhibitors were added either once on Day 0 as a bolus (closed circle and square) or daily (open circle or triangle). The number of viable cells was determined daily.

Assay [2] relates to Nalm-6 cells (CALLA+ human leukemic cell line). Description: Growth of Nalm-6 cells (viable cell counts daily). Format: cell-based. The conditions noted are these: for growth of Nalm-6 cells: bolus or daily addition, FIG. 4; for growth of Nalm-6 cells in conditioned media: 50-50 mixture of fresh media and media from a five-day culture, FIG. 5; for cell growth of Nalm-6: nanomolar to micromolar concentrations, FIG. 1 and 3. The procedure:
FIG. 1--Effect of NEP Inhibitors on the Growth of Nalm-6, A2/3, and J558 Cell Lines. The two NEP inhibitors phosphoramidon (1 μM) and carboxyphenylethyl-Phe-β-Ala (20 μM) were added to cells plated in quadruplicate at a density of 100,000 cells/ml in 24 well microtiter plates. The number of viable cells was determined daily. FIG. 3--Correlation of Cell Growth with NEP Activity. Nalm-6 cells were treated with 10 nM phosphoramidon added either as a bolus (circles) or daily (triangles). Cells were initially plated at 200,000 cells/ml. Control cells without added inhibitor are shown as squares. Aliquots were taken daily for determining cell density. To the remainder of the sample was added glutaryl-[…] and NEP activity determined. […] Cells counts were conducted daily. FIG. 5--The Effect of NEP Inhibitors on Nalm-6 Cells Grown in Fresh or Conditioned Media. Nalm-6 cells were grown in fresh media or a 50--50 mixture of fresh media and media taken from a five-day culture. The pH of the conditioned media was adjusted to that of the fresh media. Cell counts were performed daily. The efficacy of endopeptidase inhibitors may be assessed by determining cell numbers and the percent of viable cells (e.g., assessed by trypan blue exclusion) as a function of time in culture in the presence and absence of the endopeptidase inhibitors. In addition the level of neutral endopeptidase activity will be measured and correlated with these parameters. Since the enzyme is on the cell surface its activity can be measured by simply adding substrate to the cell culture. The kinetics of inactivation of purified enzyme can also be assessed. A graphical analysis of the inactivation constant (kobs) versus the inhibitor concentration can be plotted. If the inhibitor binds to the active site of the enzyme this graph should be hyperbolic. The data can then be analyzed in a double reciprocal plot of 1/kobs versus 1/[Inhibitor]. This should yield a straight line from which the dissociation constant for the inhibitor (Ki) and the maximal rate of inactivation k(inact) can be obtained. […] This type of analysis has previously been conducted to characterize the reaction of both phenylglyoxal and N-bromoacetyl-D-Leu-Gly with the enzyme. […] Nalm-6 and Nall-1 are leukemic cell lines generally representative of CALLA+ lymphoblastic leukemias. […] The number of viable cells was determined daily. In FIG. 2, the NEP inhibitors phosphoramidon (PA;10 nM) and carboxyphenylethyl-Phe-β-Ala (10 μM) were added to Nall-1 and, in a separate experiment, to SMS-SB cells plated at a density of 200,000 cells/ml. The inhibitors were added either once on Day 0 as a bolus (closed circle and square) or daily (open circle or triangle). The number of viable cells was determined daily. The inhibition of cell growth by these NEP specific inhibitors appeared somewhat transient and correlated with the recovery of NEP activity. […] Control cells without added inhibitor are shown as squares. Cells were initially plated at a density of 200,000 cells/ml. Aliquots were taken daily for determining cell density. To the remainder of the sample was added glutaryl-[…] and NEP activity was determined.

In assay [3] the target is neutral endopeptidase 24.11 (NEP). In words: Competitive inhibition of neutral endopeptidase (NEP). It counts as biochemical. The conditions noted are these: read-out: Ki (competitive inhibitor). An excerpt:
(§1) The efficacy of endopeptidase inhibitors may be assessed by determining cell numbers and the percent of viable cells (e.g., assessed by trypan blue exclusion) as a function of time in culture in the presence and absence of the endopeptidase inhibitors. In addition the level of neutral endopeptidase activity will be measured and correlated with these parameters. Since the enzyme is on the cell surface its activity can be measured by simply adding substrate to the cell culture. The kinetics of inactivation of purified enzyme can also be assessed. A graphical analysis of the inactivation constant (kobs) versus the inhibitor concentration can be plotted. If the inhibitor binds to the active site of the enzyme this graph should be hyperbolic. The data can then be analyzed in a double reciprocal plot of 1/kobs versus 1/[Inhibitor]. This should yield a straight line from which the dissociation constant for the inhibitor (Ki) and the maximal rate of inactivation k(inact) can be obtained. […] This type of analysis has previously been conducted to characterize the reaction of both phenylglyoxal and N-bromoacetyl-D-Leu-Gly with the enzyme.
NEP: glutaryl-Ala-Ala-Phe-MNA →glutaryl-Ala-Ala + Phe-MNA Aminopeptidase: Phe-MNA →Phe + MNA MNA =4-methoxy-2-naphthylamine

Assay [4] relates to neutral endopeptidase 24.11 (NEP). Description: Affinity labelling / irreversible inactivation of NEP. It counts as biochemical.
From the text: as §1

In assay [5] the test system is Nall-1 cells (CALLA+ human leukemic cell line). In words: Growth of Nall-1 cells (viable cell counts daily). It counts as cell-based. The conditions noted are these: nanomolar to micromolar concentrations; FIG. 2. On the procedure:
FIG. 2--Effect of NEP Inhibitors on the Growth of Nall-1 and SMS-SB Cell Lines. The NEP inhibitors phosphoramidon (10 nM) and carboxyphenylethyl-Phe-β-Ala(10 μM) were added to cells plated at a density of 200,000 cells/ml. The inhibitors were added either once on Day 0 as a bolus (closed circle and square) or daily (open circle or triangle). The number of viable cells was determined daily. […] Nalm-6 and Nall-1 are leukemic cell lines generally representative of CALLA+ lymphoblastic leukemias. […] The number of viable cells was determined daily. In FIG. 2, the NEP inhibitors phosphoramidon (PA;10 nM) and carboxyphenylethyl-Phe-β-Ala (10 μM) were added to Nall-1 and, in a separate experiment, to SMS-SB cells plated at a density of 200,000 cells/ml. The inhibitors were added either once on Day 0 as a bolus (closed circle and square) or daily (open circle or triangle). The number of viable cells was determined daily.

Assay [6] concerns the target T1, NEP (CALLA) on intact Nalm-6 cells (Homo sapiens, UniProt P08473).
T1 construct: NEP is a normal constituent of Nalm-6 cells; endogenous in cells; host or cells: Nalm-6 (human CALLA+ leukemic cell line)
In words: NEP activity of intact cells (glutaryl-Ala-Ala-Phe-MNA substrate). It counts as cell-based. On the procedure: FIG. 3--Correlation of Cell Growth with NEP Activity. Nalm-6 cells were treated with 10 nM phosphoramidon added either as a bolus (circles) or daily (triangles). Cells were initially plated at 200,000 cells/ml. Control cells without added inhibitor are shown as squares. Aliquots were taken daily for determining cell density. To the remainder of the sample was added glutaryl-[…] and NEP activity determined. The efficacy of endopeptidase inhibitors may be assessed by determining cell numbers and the percent of viable cells (e.g., assessed by trypan blue exclusion) as a function of time in culture in the presence and absence of the endopeptidase inhibitors. In addition the level of neutral endopeptidase activity will be measured and correlated with these parameters. Since the enzyme is on the cell surface its activity can be measured by simply adding substrate to the cell culture. The kinetics of inactivation of purified enzyme can also be assessed. A graphical analysis of the inactivation constant (kobs) versus the inhibitor concentration can be plotted. […] The data can then be analyzed in a double reciprocal plot of 1/kobs versus 1/[Inhibitor]. […] To the remainder of the sample was added glutaryl-[…] and NEP activity was determined. […] The NEP activity of intact cells in the presence of the inhibitors has been measured during the course of experiments similar to those shown in FIG. 1. […]

Assay [7] relates to L3 myoblast cell line. In words: L3 myoblast cell line, formation of myotubules. Format: cell-based.

SMILES strings stand for the structures. Entries after “also recorded” stand apart in the source; their conditions may differ. Square brackets hold non-standard residues; d marks the D form. Peptide text beside a SMILES is read from it. * marks the point of attachment. BrAc = O=C(CBr)*

T1 sequence (P08473 whole entry): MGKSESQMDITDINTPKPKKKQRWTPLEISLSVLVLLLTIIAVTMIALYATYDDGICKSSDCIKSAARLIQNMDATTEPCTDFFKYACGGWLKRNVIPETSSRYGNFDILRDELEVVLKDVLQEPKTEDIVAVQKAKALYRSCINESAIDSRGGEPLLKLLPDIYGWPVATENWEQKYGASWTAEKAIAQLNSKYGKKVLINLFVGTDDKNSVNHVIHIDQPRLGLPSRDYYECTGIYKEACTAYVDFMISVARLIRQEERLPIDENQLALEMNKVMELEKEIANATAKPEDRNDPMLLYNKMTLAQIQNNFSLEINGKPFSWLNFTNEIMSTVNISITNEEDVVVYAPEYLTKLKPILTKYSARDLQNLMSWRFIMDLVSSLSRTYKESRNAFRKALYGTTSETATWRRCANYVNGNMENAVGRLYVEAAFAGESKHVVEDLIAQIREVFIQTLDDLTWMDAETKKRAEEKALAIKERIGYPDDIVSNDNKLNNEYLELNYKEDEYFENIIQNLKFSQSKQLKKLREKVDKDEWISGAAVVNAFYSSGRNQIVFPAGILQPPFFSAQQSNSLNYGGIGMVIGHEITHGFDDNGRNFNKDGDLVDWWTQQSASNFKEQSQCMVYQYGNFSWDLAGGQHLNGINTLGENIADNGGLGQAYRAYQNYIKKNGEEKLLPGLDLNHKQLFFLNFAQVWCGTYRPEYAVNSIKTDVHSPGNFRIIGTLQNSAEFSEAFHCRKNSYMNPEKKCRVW

On to `O=C(O)CNC(=O)C(CS)Cc1ccccc1` (stereo not shown) [thiorphan, HS--CH2 --CH(CH2 --.phi.)--CO--Gly], for which the “growth of CALLA- SMS leukemic cell line” value in assay [1] was “neither thiorphan nor captopril affect the growth”. Besides, in assay [2] (10 μM), the “growth of Nalm-6 cells” value was “inhibits the growth”.

Turning to `CC(C)C[C@@H](NC(=O)CBr)C(=O)NCC(=O)O` [BADLG, N-bromoacetyl-D-Leu-Gly] (BrAc-[dL]-Gly-OH), in assay [3], the inhibition constant Ki turned out to be 5 mM. The “irreversible inhibition / affinity labelling of NEP” value in assay [4] is reported as “irreversible inhibitor”. Further, the “mol incorporated per mol of enzyme” value in assay [4] (irreversible inhibition) is listed as 1 mol per mol of enzyme.

On to `O=C(O)CCNC(=O)[C@H](Cc1ccccc1)NC(Cc1ccccc1)C(=O)O` (stereo partly drawn) [carboxyphenylethyl-Phe-β-Ala], for which, in assay [2], the “growth of Nalm-6 cells in conditioned media” value is on record as “the cells grow” and the “cell growth of Nalm-6” value is “cell growth was inhibited; also recorded: inhibit cell growth”. For the same compound, the “cell growth of Nall-1” value in assay [5] is “cell growth was inhibited; also recorded: inhibit cell growth”. Also, the “enzyme (NEP) activity in conditioned vs fresh media” value in assay [6] is reported as “just as effectively inhibited in the conditioned media as in the fresh media”.

As for `CC(C)C[C@H](NP(=O)(O)O[C@@H]1O[C@@H](C)[C@H](O)[C@@H](O)[C@H]1O)C(=O)N[C@@H](Cc1c[nH]c2ccccc12)C(=O)O` [phosphoramidon], in assay [7], the “effect on L3 myoblast cell line (formation of myotubules)” value is on record as “unaffected”. The “duration of inhibition of cell growth at higher inhibitor concentration” value in assay [2] (10 μM) is “growth is inhibited during the entire course of the experiment”. For the same compound, in assay [2], the “growth of Nalm-6 cells in conditioned media” value is reported as “the cells grow” and the “cell growth of Nalm-6” value was “cell growth was inhibited; also recorded: inhibit cell growth”. Also, the “growth of Nalm-6 cells in dialyzed conditioned media” value in assay [2] (conditioned media dialyzed against fresh media, cut-off 14,000) is given as “cell growth was once again inhibited”. For the same compound, in assay [5], the “cell growth of Nall-1” value is “cell growth was inhibited; also recorded: inhibit cell growth”. In assay [6], the “enzyme (NEP) activity in conditioned vs fresh media” value was “just as effectively inhibited in the conditioned media as in the fresh media”.

In the case of `C[C@H](CS)C(=O)N1CCC[C@H]1C(=O)O` [captopril, HS--CH2 --CH(CH3)--CO--Pro], in assay [1], the “growth of CALLA- SMS leukemic cell line” value is on record as “neither thiorphan nor captopril affect the growth”. In addition, the “growth of Nalm-6 cells” value in assay [2] (10 μM) is “without effect”.

Consider `C[C@H](NC(=O)[C@@H](Cc1ccccc1)NC(=O)CBr)C(=O)O` [bromoacetyl-D-Phe-Ala], for which the “irreversible inhibition / affinity labelling of NEP” value in assay [4] is given as “not an affinity label of NEP”.

As usually defined, the Ki is the dissociation constant of the complex between target and ligand, obtained from inhibition or displacement.

The record behind these values is US5200426A, “Inhibitors of neutral endopeptidase/CALLA as chemotherapeutic agents” (Board of Regents, The University of Texas, priority 1990, dated 1993).
